Where the note is “2% aqueous solution of the active substance”, `CCCCCCCCCCCCSCC(COP(=O)([O-])OCC1OC(n2cc(C)c(=O)[nH]c2=O)CC1F)OCCCCCCCCCC.[Na+]` (centres unmarked) [Example 3 active substance, Na salt of 3′-fluoro-3′-deoxy-5′-thymidylic acid-mono[3-(dodecyl-thio)-2-decyloxypropyl]-ester] came in with a viscosity of 6 mpas*sec.
Consider `CCCCCCCCCCCCSCC(COP(=O)([O-])OCC1OC(n2cc(C)c(=O)[nH]c2=O)CC1N=[N+]=[N-])OCCCCCCCCCC.[Na+]` (centres unmarked) [Example 1 active substance, Na salt of 3′-azido-3′-deoxy-5′-thymidylic acid-mono[3-(dodecyl-thio)-2-decyloxypropyl]-ester], for which, where the note is “aqueous 7% solution of the active substance”, the “viscosity of the solution” value is 500-600 mpa*sec.

(Values after patent US6521262B2, “Solid instant-release forms of administration and process for producing the same” (Heidelberg Pharma Holding GmbH, priority 1996, dated 2003).)
